Measured values from publication PMC9718777, “A growth selection system for the directed evolution of amine-forming or converting enzymes” (Nature Communications, 2022).

Experiments:
[1] = target: T1, PcPAL(wt), phenylalanine ammonia lyase (Petroselinum crispum, UniProt P24481); experiment: specific activity; type: biochemical
T1 construct: gene PAL1

[2] = target: T2, PcPAL(AI), phenylalanine ammonia lyase (Petroselinum crispum, UniProt P24481, L134A/L256I); experiment: specific activity of purified variant (amination of […]); type: biochemical
T2 construct: gene PAL1; purified variant of full-length PcPAL, recombinant in E. coli; MIO-dependent homotetramer

[3] = test system: C[C@H](N)c1cccc2ccccc12; experiment: purified protein; type: biochemical, Microbacterium oxydans; details: FAD active site
[4] = target: T3, AtTA(wt), (R)-selective amine transaminase (Aspergillus terreus, UniProt Q0C8G1); experiment: specific activity (benchmark substrate); type: biochemical
T3 construct: gene ATEG_10023
T3 sequence (Q0C8G1 1-325): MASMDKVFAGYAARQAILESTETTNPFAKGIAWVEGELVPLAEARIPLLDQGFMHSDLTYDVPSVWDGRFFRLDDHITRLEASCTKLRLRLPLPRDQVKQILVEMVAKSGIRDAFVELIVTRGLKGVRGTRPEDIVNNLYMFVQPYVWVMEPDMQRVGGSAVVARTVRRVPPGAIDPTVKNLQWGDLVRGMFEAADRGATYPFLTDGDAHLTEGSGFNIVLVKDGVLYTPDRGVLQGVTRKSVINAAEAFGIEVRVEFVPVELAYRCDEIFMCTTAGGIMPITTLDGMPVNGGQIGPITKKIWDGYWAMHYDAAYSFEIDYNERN

[5] = target: T3, AtTA(wt), (R)-selective amine transaminase; experiment: specific activity of purified enzyme with pyruvate; type: biochemical
[6] = target: T4, AtTA(RHC), (R)-selective amine transaminase (Aspergillus terreus, UniProt Q0C8G1, H55R/F115H/E117C); experiment: specific activity of purified variant with pyruvate; asymmetric synthesis; type: biochemical
T4 construct: gene ATEG_10023

[7] = target: T1, PcPAL(wt), phenylalanine ammonia lyase; experiment: specific activity of purified enzyme; type: biochemical
[8] = substrate: C[C@H](N)c1cccc2ccccc12; experiment: purified protein; type: biochemical, Microbacterium oxydans; details: FAD active site; remark: listed apart in the source

N[C@@H](Cc1ccccc1)C(=O)O [ʟ-phenylalanine]
specific activity [1]: 0.147 U/mg

O=C(O)/C=C/c1cccc2ccccc12 [compound 6, 6]
specific activity of purified variant (amination of 6) [2]: 0.55 U/mg

CHAO(MVLM), cyclohexylamine oxidase (Microbacterium oxydans; L182V/M209L/T181M/Y304M)
Km [3]: 2.2 mM

C[C@@H](N)c1ccccc1 [(R)-1-phenylethylamine]
specific activity (benchmark substrate) [4]: 2.9 U/mg

CC(C)(C)OC(=O)N1CCC[C@@H](N)C1 [(R)-1, (R)-1-Boc-3-aminopiperidine]
specific activity of purified enzyme with pyruvate [5]: 0.038 U/mg | specific activity of purified variant with pyruvate; asymmetric synthesis [6]: 4.2 U/mg

N[C@@H](Cc1cccc2ccccc12)C(=O)O [(S)-5, (S)-2-amino-3-(naphthalen-1-yl)propanoic acid]
specific activity of purified enzyme [7]: 0.0027 U/mg

B1: CHAO(wt), cyclohexylamine oxidase (Microbacterium oxydans) (protein)
chain: THLNTYESVTPDPDVDVIIIGAGISGSAAAKALHDQGASVLVVEANDRIGGRTWTEQEGAPGGPIDYGGMFIGETHTHLIELGTSLGLEMTPSGKPGDDTYIVAGNVLRAPDDQLDPNLPFVPEFLSSLKALDELADSVGWDQPWASPNAAALDSKTVATWLAETIESEEVRRLHTVIVNTLLGADPYEVSLLYWAYYVSECEGIQSLMGTRDGAQWAWWFGGAAQVSWRIADAIGRDKFLLEWPVDRIEHDESGVTLFSGQRSLRARHIVIAMSPLAANQIRFEPALPTSRAQLQARAPMGRYYKVQARYPSSFWVEQGYSGALLDTEDVGVFLLDGTKPTDTLATLIGFIGGSNYDRWAAHTPQERERAFLDLLVKAFGPQAADPSYFHETDWTQQEWAKGGPVTYMPPGVLANFGAALRDPVGKVHFAGTEASFQWSGYMEGGVRAGQKAAAAIAEELERTANKGALV
Km [8]: 4.5 mM
